Reference: ChEMBL document CHEMBL1126455, “Syntheses of new metabolically stabilized TXA2/PGH2-receptor antagonists and their biological properties” (1992)

How the values were obtained:
[1] = biological target: T1, Thromboxane A2 receptor (Homo sapiens) (UniProt P21731); assay: Competition factor for Thromboxane A2 receptor/Prostaglandin H2 receptor was determined by CF=(ID50-test)/(ID50-standard)
T1 sequence (whole entry): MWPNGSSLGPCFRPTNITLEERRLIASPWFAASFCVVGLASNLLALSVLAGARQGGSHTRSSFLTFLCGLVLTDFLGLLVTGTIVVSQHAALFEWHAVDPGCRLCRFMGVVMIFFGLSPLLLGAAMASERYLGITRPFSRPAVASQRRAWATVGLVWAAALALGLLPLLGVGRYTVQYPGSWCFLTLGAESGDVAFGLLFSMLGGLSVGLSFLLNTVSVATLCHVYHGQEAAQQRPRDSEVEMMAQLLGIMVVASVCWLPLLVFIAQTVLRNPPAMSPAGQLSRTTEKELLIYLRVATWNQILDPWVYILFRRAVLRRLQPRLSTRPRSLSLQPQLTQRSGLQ

Homo sapiens = species: Homo sapiens; assay: Potency of was determined relative to the SQ 29548 by inhibition of aggregation of human platelet rich plasma induced by 10*-6 M U 46619; assay type: functional

Row | CF [1] | SMILES | Potency (Homo sapiens)
1 | 0.4 | O=C(O)COCCCC[C@H]1[C@H](CNS(=O)(=O)c2ccc(Cl)c(Cl)c2)C2CC1(c1ccc(F)cc1)CO2 (some centres not stated) | 0.08
2 | 45 | Cc1ccc(S(=O)(=O)N[C@@H]2C3CC(c4ccc(F)cc4)(CO3)[C@H]2C/C=C\CCCC(=O)O)cc1 (some centres not stated) | 0.001
3 | 0.4 | Cc1ccc(S(=O)(=O)NC[C@@H]2C3CC(c4ccc(F)cc4)(CO3)[C@H]2C/C=C\CCCC(=O)O)cc1 (some centres not stated) | 0.01
4 | 3 | O=C(O)COCCCC[C@H]1[C@H](CNS(=O)(=O)c2ccc(Cl)c(Cl)c2)C2CC1(c1ccc(-c3ccccc3)cc1)CO2 (some centres not stated) | 0.03
5 | 0.4 | Cc1ccc(S(=O)(=O)NC[C@@H]2C3CC(c4ccc(F)cc4)(CO3)[C@H]2CCCCOCC(=O)O)cc1 (some centres not stated) | 0.03
6 | 120 | O=C(O)CCC/C=C\C[C@H]1[C@H](NS(=O)(=O)c2ccc(F)cc2)C2CC1(c1ccc(F)cc1)CO2 (some centres not stated) | 0.0004
7 | 0.3 | O=C(O)CCC/C=C\C[C@H]1[C@H](CNS(=O)(=O)c2ccc(F)cc2)C2CC1(c1ccc(F)cc1)CO2 (some centres not stated) | 0.03
8 | 170 | Cc1ccc(S(=O)(=O)N[C@@H]2C3CC(c4ccc(F)cc4)(CO3)[C@H]2C/C=C\COCC(=O)O)cc1 (some centres not stated) | 0.003
9 | 0.2 | O=C(O)CCC/C=C\C[C@H]1[C@H](CNS(=O)(=O)c2ccc(Cl)cc2)C2CC1(c1ccc(F)cc1)CO2 (some centres not stated) | 0.01
10 | 0.1 | O=C(O)COCCCC[C@H]1[C@H](CNS(=O)(=O)c2ccc(Cl)cc2)C2CC1(c1ccc(F)cc1)CO2 (some centres not stated) | 0.08
11 | 12 | O=C(O)CCCCCC[C@H]1[C@H](CNS(=O)(=O)c2ccc(Cl)c(Cl)c2)C2CC1(c1ccc(-c3ccccc3)cc1)CO2 (some centres not stated) | 0.01
12 | 0.5 | O=C(O)CCC/C=C\C[C@H]1[C@H](CNS(=O)(=O)c2ccc(Cl)c(Cl)c2)C2CC1(c1ccc(F)cc1)CO2 (some centres not stated) | 0.01
13 | 4.2 | O=C(O)CCC/C=C\C[C@H]1[C@H](CNS(=O)(=O)c2ccc(Cl)c(Cl)c2)C2CC1(c1ccc(-c3ccccc3)cc1)CO2 (some centres not stated) | 0.01
14 | 400 | O=C(O)COCC=CC[C@H]1[C@H](NS(=O)(=O)c2ccc(F)cc2)C2CC1(c1ccc(F)cc1)CO2 (some centres not stated) | 0.003
15 | 27 | Cc1ccc(S(=O)(=O)N[C@@H]2C3CC(c4ccc(F)cc4)(CO3)[C@H]2CCCCOCC(=O)O)cc1 (some centres not stated) | 0.003
16 | 0.5 | O=C(O)COCCCC[C@H]1[C@H](CNS(=O)(=O)c2ccc(F)cc2)C2CC1(c1ccc(F)cc1)CO2 (some centres not stated) | 0.08
